For 22 compounds, EC50 results are on record in patent publication US11020395B2, “Cycloalkyl substituted triazole compounds as agonists of the APJ receptor” (AMGEN INC., priority 2016, dated 2021).

The target of this experiment is human APJ receptor (Homo sapiens (Human), UniProt P35414). In words: [35S]GTPγS binding assay on membranes from CHO cells stably expressing human APJ receptor. Format: biochemical. Particulars: [35S]GTPγS SPA, read-out: Activity hAPJ SPA EC50 IP. As for the experimental part:
[^35S]GTPγS Binding The human APJ receptor was cloned by polymerase chain reaction and the gene encoding the receptor was subcloned in pFLAG-CMV™-3 expression vector (Sigma, Saint Louis, Mo. USA) in-house at Amgen. A GTPγS binding assay was performed on membranes prepared from CHO cells stably expressing human APJ receptor. The optimum experimental conditions for the concentrations of GDP, MgCl2, and NaCl in the assay buffer were initially determined. […] Incubation was at RT for 90 min and the microplate was read using a ViewLux™ ultra HTS Microplate Imager (PerkinElmer, Inc.). All the results presented are means of several independent experiments and analyzed by non-linear regression methods using the commercially available program Prism (GraphPad, San Diego, Calif.) providing the EC50 values detailed in Table 25.
A general note: Binding of GTPγS marks nucleotide exchange on a G protein.

As a reminder, the EC50 is the concentration giving half of the maximal effect.

Chain of human APJ receptor (P35414 whole entry): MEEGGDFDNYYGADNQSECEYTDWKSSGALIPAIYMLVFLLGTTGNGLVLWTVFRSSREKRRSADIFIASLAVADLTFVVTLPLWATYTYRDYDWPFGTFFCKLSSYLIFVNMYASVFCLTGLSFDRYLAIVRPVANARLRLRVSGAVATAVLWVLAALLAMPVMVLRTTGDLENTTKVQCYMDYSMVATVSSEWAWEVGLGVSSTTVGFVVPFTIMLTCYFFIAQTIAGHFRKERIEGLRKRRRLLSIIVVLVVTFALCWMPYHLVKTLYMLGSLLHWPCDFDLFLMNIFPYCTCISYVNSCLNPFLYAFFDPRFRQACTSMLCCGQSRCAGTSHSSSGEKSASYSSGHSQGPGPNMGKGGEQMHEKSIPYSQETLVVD

With `COc1cccc(OC)c1-n1c(NS(=O)(=O)[C@@H](C)[C@H](C)c2ncc(Cl)cn2)nnc1C1(c2ccccn2)CC1` [Example 125.0], the EC50 was found to be 400 nM.
The value for `COc1ncnc(OC)c1-n1c(NS(=O)(=O)[C@@H](C)[C@H](OC)c2ncc(Cl)cn2)nnc1[C@H]1C[C@@H](Cl)C1` (single isomer, unassigned) [Example 165.0, (1R,2S)-1-(5-chloropyrimidin-2-yl)-N-(4-(4,6-dimethoxypyrimidin-5-yl)-5-((1s,3R)-3-chlorocyclobutyl)-4H-1,2,4-triazol-3-yl)-1-methoxypropane-2-sulfonamide or (1R,2S)-1-(5-chloropyrimidin-2-yl)-N-(4-(4,6-dimethoxypyrimidin-5-yl)-5-((1r,3S)-3-chlorocyclobutyl)-4H-1,2,4-triazol-3-yl)-1-methoxypropane-2-sulfonamide] was 9.7 nM; that for `COc1cccc(OC)c1-n1c(NS(=O)(=O)[C@@H](C)[C@H](OCC(F)F)c2ncc(C)cn2)nnc1C1CCC1` [Example 209.0] was 18 nM; that for `COc1ncnc(OC)c1-n1c(NS(=O)(=O)[C@@H](C)[C@H](OC)c2ncc(Cl)cn2)nnc1[C@H]1CC1(F)F` (single isomer, unassigned) [Example 101.0, (1R,2S)-1-(5-chloropyrimidin-2-yl)-N-(5-((R)-2,2-difluorocyclopropyl)-4-(4,6-dimethoxypyrimidin-5-yl)-4H-1,2,4-triazol-3-yl)-1-methoxypropane-2-sulfonamide or (1R,2S)-1-(5-chloropyrimidin-2-yl)-N-(5-((S)-2,2-difluorocyclopropyl)-4-(4,6-dimethoxypyrimidin-5-yl)-4H-1,2,4-triazol-3-yl)-1-methoxypropane-2-sulfonamide] was 60 nM.
The value for `COc1cccc(OC)c1-n1c(NS(=O)(=O)[C@@H](C)[C@@H](OC(C)C)c2cnc(C)cn2)nnc1C1CCC1` [Example 140.0] was 31 nM.
Regarding `COc1cccc(OC)c1-n1c(NS(=O)(=O)[C@@H](C)[C@H](C)c2ncc(Cl)cn2)nnc1C1CCC1` [Example 143.0], the EC50 is 4.1 nM.
In the case of `COc1cccc(OC)c1-n1c(NS(=O)(=O)[C@@H](C)[C@H](OC)c2ncc(Cl)cn2)nnc1[C@H]1C[C@@H](CO)C1` (single isomer, unassigned) [Example 124.0, (1R,2S)-1-(5-chloro-2-pyrimidinyl)-N-(4-(2,6-dimethoxyphenyl)-5-(cis-3-(hydroxymethyl)cyclobutyl)-4H-1,2,4-triazol-3-yl)-1-methoxy-2-propanesulfonamide or (1R,2S)-1-(5-chloro-2-pyrimidinyl)-N-(4-(2,6-dimethoxyphenyl)-5-(trans-3-(hydroxymethyl)cyclobutyl)-4H-1,2,4-triazol-3-yl)-1-methoxy-2-propanesulfonamide] it was 49 nM; in that of `COc1ncnc(OC)c1-n1c(NS(=O)(=O)[C@@H](C)[C@H](C)c2cnc(C)cn2)nnc1C1CCC1` [Example 88.0, (2S,3R)-N-(5-cyclobutyl-4-(4,6-dimethoxy-5-pyrimidinyl)-4H-1,2,4-triazol-3-yl)-3-(5-methyl-2-pyrazinyl)-2-butanesulfonamide], 42 nM.
The value for `COc1cccc(OC)c1-n1c(NS(=O)(=O)[C@@H](C)[C@@H](OC(C)C)c2ncc(C)cn2)nnc1[C@H]1C[C@@](C)(O)C1` (single isomer, unassigned) [Example 231.0, (1S,2S)-N-(4-(2,6-dimethoxyphenyl)-5-(trans-3-hydroxy-3-methylcyclobutyl)-4H-1,2,4-triazol-3-yl)-1-(5-methyl-2-pyrimidinyl)-1-(2-propanyloxy)-2-propanesulfonamide or (1S,2S)-N-(4-(2,6-dimethoxyphenyl)-5-(cis-3-hydroxy-3-methylcyclobutyl)-4H-1,2,4-triazol-3-yl)-1-(5-methyl-2-pyrimidinyl)-1-(2-propanyloxy)-2-propanesulfonamide] was 220 nM; that for `COc1cccc(OC)c1-n1c(NS(=O)(=O)[C@@H](C)[C@H](C)c2cnc(C)cn2)nnc1C1CCC1` [Example 139.0] was 29 nM.
As for “(2S,3R)-3-(5-chloropyrimidin-2-yl)-N-(4-(2,6-dimethoxyphenyl)-5-((S)-spiro[2.2]pentan-1-yl)-4H-1,2,4-triazol-3-yl)butane-2-sulfonamide or (2S,3R)-3-(5-chloropyrimidin-2-yl)-N-(4-(2,6-dimethoxyphenyl)-5-((R)-spiro[2.2]pentan-1-yl)-4H-1,2,4-triazol-3-yl)butane-2-sulfonamide [Example 219.0]”, the EC50 stood at 29 nM.
In the case of `COc1ncnc(OC)c1-n1c(NS(=O)(=O)[C@@H](C)[C@H](OC)c2ncc(Cl)cn2)nnc1C1CC(C)(C)C1` [Example 120.0] it was 3.1 nM; in that of `COc1cccc(OC)c1-n1c(NS(=O)(=O)[C@@H](C)[C@H](OC)c2ncc(Cl)cn2)nnc1C1CC2(CC2)C1` [Example 239.0, (1R,2S)-1-(5-chloro-2-pyrimidinyl)-N-(4-(2,6-dimethoxyphenyl)-5-(spiro[2.3]hexan-5-yl)-4H-1,2,4-triazol-3-yl)-1-methoxy-2-propanesulfonamide], 0.64 nM.
The value for `CO[C@H](c1ncc(Cl)cn1)[C@H](C)S(=O)(=O)Nc1nnc([C@H]2C[C@H](CO)C2)n1C1CC1` (single isomer, unassigned) [Example 134.0, (1R,2S)-1-(5-chloro-2-pyrimidinyl)-N-(4-cyclopropyl-5-(trans-3-(hydroxymethyl)cyclobutyl)-4H-1,2,4-triazol-3-yl)-1-methoxy-2-propanesulfonamide or (1R,2S)-1-(5-chloro-2-pyrimidinyl)-N-(4-cyclopropyl-5-(cis-3-(hydroxymethyl)cyclobutyl)-4H-1,2,4-triazol-3-yl)-1-methoxy-2-propanesulfonamide] was 1330 nM; that for `COCC1(n2c(NS(=O)(=O)[C@@H](C)[C@H](OC)c3ncc(Cl)cn3)nnc2C2CCC2)CC1` [Example 96.0] was 30 nM.
In the case of `COCC(COC)n1c(NS(=O)(=O)[C@@H](C)[C@H](OC)c2ncc(Cl)cn2)nnc1C1CCC1` [Example 95.0, (1R,2S)-1-(5-chloropyrimidin-2-yl)-N-(5-cyclobutyl-4-(1,3-dimethoxypropan-2-yl)-4H-1,2,4-triazol-3-yl)-1-methoxypropane-2-sulfonamide] it was 43 nM; in that of `COc1ncnc(OC)c1-n1c(NS(=O)(=O)[C@@H](C)[C@@H](OC(C)C)c2ncc(Cl)cn2)nnc1[C@@H]1CC[C@@H]1C(F)F` (single isomer, unassigned) [Example 167.0, (1S,2S)-1-(5-chloropyrimidin-2-yl)-N-(5-((1R,2S)-2-(difluoromethyl)cyclobutyl)-4-(4,6-dimethoxypyrimidin-5-yl)-4H-1,2,4-triazol-3-yl)-1-isopropoxypropane-2-sulfonamide or (1S,2S)-1-(5-chloropyrimidin-2-yl)-N-(5-((1S,2R)-2-(difluoromethyl)cyclobutyl)-4-(2,6-dimethoxypyrimidin-5-yl)-4H-1,2,4-triazol-3-yl)-1-isopropoxypropane-2-sulfonamide], 13 nM.
`COc1ncnc(OC)c1-n1c(NS(=O)(=O)[C@@H](C)[C@H](OC)c2ncc(Cl)cn2)nnc1C1CC2(COC2)C1` [Example 240.0, (1R,2S)-1-(5-chloro-2-pyrimidinyl)-N-(4-(4,6-dimethoxy-5-pyrimidinyl)-5-(2-oxaspiro[3.3]heptan-6-yl)-4H-1,2,4-triazol-3-yl)-1-methoxy-2-propanesulfonamide]: the 50% effective concentration (EC50) turned out to be 71 nM.
In the case of `COc1ncnc(OC)c1-n1c(NS(=O)(=O)[C@@H](C)[C@H](OC)c2ncc(Cl)cn2)nnc1[C@H]1CC[C@H]1C` (single isomer, unassigned) [Example 188.0, (1R,2S)-1-(5-chloropyrimidin-2-yl)-N-(4-(4,6-dimethoxypyrimidin-5-yl)-5-((1S,2R)-2-methylcyclobutyl)-4H-1,2,4-triazol-3-yl)-1-methoxypropane-2-sulfonamide or (1R,2S)-1-(5-chloropyrimidin-2-yl)-N-(4-(4,6-dimethoxypyrimidin-5-yl)-5-((1R,2S)-2-methylcyclobutyl)-4H-1,2,4-triazol-3-yl)-1-methoxypropane-2-sulfonamide] it was 14 nM; in that of `COc1cccc(OC)c1-n1c(NS(=O)(=O)CCc2ncc(Cl)cn2)nnc1C1CCC1` [Example 210.0, 2-(5-chloro-2-pyrimidin-yl)-N-(5-cyclobutyl-4-(2,6-dimethoxyphenyl)-4H-1,2,4-triazol-3-yl)ethanesulfonamide], 15 nM.
As to `COc1cccc(OC)c1-n1c(NS(=O)(=O)[C@@H](C)[C@H](OC)c2ncc(Cl)cn2)nnc1[C@H]1C[C@@H](C#N)C1` (single isomer, unassigned) [Example 122.0, (1R,2S)-1-(5-chloro-2-pyrimidinyl)-N-(5-(cis-3-cyanocyclobutyl)-4-(2,6-dimethoxyphenyl)-4H-1,2,4-triazol-3-yl)-1-methoxy-2-propanesulfonamide or (1R,2S)-1-(5-chloro-2-pyrimidinyl)-N-(5-(trans-3-cyanocyclobutyl)-4-(2,6-dimethoxyphenyl)-4H-1,2,4-triazol-3-yl)-1-methoxy-2-propanesulfonamide], the EC50 came to 28 nM.
Take `COc1ncnc(OC)c1-n1c(NS(=O)(=O)[C@@H](C)[C@@H](OC(C)C)c2ncc(Cl)cn2)nnc1C1CCC1` [Example 89.0, (1S,2S)-1-(5-chloro-2-pyrimidinyl)-N-(5-cyclobutyl-4-(4,6-dimethoxy-5-pyrimidinyl)-4H-1,2,4-triazol-3-yl)-1-(2-propanyloxy)-2-propanesulfonamide]: the EC50 is 0.74 nM.
